Measurements: patent US12064433B2 (ARCUS BIOSCIENCES, INC., priority 2018, dated 2024)

Experiments:
Human A2BR = molecular target: T1, Human A2BR (Homo sapiens, UniProt P29275); assay: Human 2B Adenosine Receptor CHO-K1 cAMP antagonist functional assay; assay type: cell-based; conditions: cAMP antagonist functional assay vs NECA, CHO-K1 cells stably expressing Human A2BR; read-out: A2B (Potency: A2BR KB)
T1 sequence (P29275 1-332): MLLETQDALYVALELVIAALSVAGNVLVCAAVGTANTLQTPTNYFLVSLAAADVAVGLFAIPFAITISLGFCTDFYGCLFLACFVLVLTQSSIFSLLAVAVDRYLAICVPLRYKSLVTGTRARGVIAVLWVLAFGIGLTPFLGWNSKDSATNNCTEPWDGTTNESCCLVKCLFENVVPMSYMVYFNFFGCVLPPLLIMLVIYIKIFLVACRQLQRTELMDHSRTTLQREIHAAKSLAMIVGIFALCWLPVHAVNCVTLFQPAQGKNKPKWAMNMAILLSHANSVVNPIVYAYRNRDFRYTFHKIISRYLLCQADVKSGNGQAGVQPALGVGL
Protocol: Measurement of the Adenosine Receptor Activity of Compounds Using a Human 2B Adenosine Receptor CHO-K1 cAMP Functional Assay
CHO-K1 cells stably expressing Human Adenosine 2B Receptor (A2BR: Cat. No. M000329, GenScript) were purchased from GenScript Inc., Piscataway, NJ 08854, USA.
The cAMP antagonist functional assay (Perkin Elmer) was performed on CHO-K1 cells stably expressing Human A2BR. 1×10^6 cells were seeded in T75 flasks and cultured at 37° C. and 5% CO2 overnight. 2,000-4,000 cells/well of stably-expressed A2bR CHO-K1 cells were then seeded to a white 384-well Opti plate followed by compound 1 incubation at various concentrations (ranging from 1 μM to 0 μM) at 37° C. for 1 hour.
(§1) A 1:2 serial dilution of NECA (Sigma Aldrich) from 1 μM to 0 μM was added to the cell stimulation mixture and incubated for 30 min at 37° C. After 30 min incubation, 5 μL of Ulight-anti-cAMP (1:150 dilution with conjugate and lysis buffer provided by Perkin Elmer) and 5 μL of Eu-cAMP tracer (1:50 dilution with conjugate and lysis buffer provided by Perkin Elmer) was added the cells and incubated for an hour. FRET signal was detected with an Envision multilabel plate reader (Perkin Elmer) loaded with 615 nm […] filters and 665 nm emission filters.
(§2) Data analysis was performed using on GraphPad Prism (version 7.02) to determine the KB of the test compounds.

Human A2AR = molecular target: T2, Human A2AR (Homo sapiens, UniProt P29274); assay: Human 2A Adenosine Receptor (A2aR) CHO-TREx cAMP antagonist functional assay; assay type: cell-based; conditions: cAMP antagonist functional assay vs NECA, CHO-T-REx cells induced to express Human A2AR; read-out: A2A (Potency: A2AR KB)
T2 construct: expressed in transfected cells; host or cells: CHO-T-REx cells, tetracycline-inducible expression
T2 sequence (P29274 whole entry): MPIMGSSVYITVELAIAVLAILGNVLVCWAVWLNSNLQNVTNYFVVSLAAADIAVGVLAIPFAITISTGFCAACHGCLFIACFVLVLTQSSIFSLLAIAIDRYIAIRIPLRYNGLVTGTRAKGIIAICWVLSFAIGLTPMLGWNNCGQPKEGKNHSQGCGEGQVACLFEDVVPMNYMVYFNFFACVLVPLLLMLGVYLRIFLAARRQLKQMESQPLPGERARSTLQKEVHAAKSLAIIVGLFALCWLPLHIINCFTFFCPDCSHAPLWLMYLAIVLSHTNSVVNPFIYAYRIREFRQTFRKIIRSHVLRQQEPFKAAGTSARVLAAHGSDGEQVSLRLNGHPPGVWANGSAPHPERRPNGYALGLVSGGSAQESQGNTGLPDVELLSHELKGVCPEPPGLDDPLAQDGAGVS
Protocol: Measurement of the Adenosine Receptor Activity of Compounds Using a Human 2A Adenosine Receptor (A2aR) CHO-TREx cAMP Functional Assay
The cAMP antagonist functional assay (Perkin Elmer) was performed on CHO-T-REx cells induced to express Human A2AR. Cells were seeded to a white 384-well Opti plate at a density of 1,000 to 2,500 cells per well followed by incubation with various concentrations of compound (ranging from 1 μM to 0 μM) at 37° C. for 1 hour.
as §1, §2

Compound | Kb (Human A2BR) | Kb (Human A2AR)
COc1cccc2c(-c3cn(Cc4cccn(C(C)C)c4=O)nn3)cc(N)nc12 [Example 8] | 100 to 1000 nM | < 100 nM
COc1cccc2c(-c3cn(Cc4cccn(CC(C)(C)O)c4=O)nn3)nc(N)nc12 [Example 3] | < 100 nM | < 100 nM
COc1cccc2c(-c3cn(Cc4cccn([C@@H](C)C(C)(C)O)c4=O)nn3)nc(N)nc12 [Example 26, 1-[(S)-2-Hydroxy-1,2-dimethylpropyl]-3-{[4-(2-amino-8-methoxy-4-quinazolinyl)-1H-1,2,3-triazol-1-yl]methyl}-1H-pyridin-2-one] | < 100 nM | < 100 nM
Cc1cccc2c(-c3cn(Cc4cccn(C(C)C)c4=O)nn3)nc(N)nc12 [Example 6] | < 100 nM | < 100 nM
COc1cccc2c(-c3cn(Cc4cccn([C@H](C)C5CCOCC5)c4=O)nn3)nc(N)nc12 [Example 28] | < 100 nM | < 100 nM
COc1cccc2c(-c3cn(Cc4cccn(CC5CCOCC5)c4=O)nn3)nc(N)nc12 [Example 21] | < 100 nM | < 100 nM
3-{[4-(2-Amino-8-methoxy-4-quinazolinyl)-1H-1,2,3-triazol-1-yl]methyl}-1-(cyclopropylmethyl)-1H-pyridin-2-one [Example 4] | 100 to 1000 nM | < 100 nM

Now from value to compound:

Kb (Human A2BR) | Kb (Human A2AR) | Compound
< 100 nM | < 100 nM | COC[C@@H](C)n1cccc(Cn2cc(-c3nc(N)nc4c(OC)cccc34)nn2)c1=O [Example 24]
100 to 1000 nM | < 100 nM | COC[C@H](C)n1cccc(Cn2cc(-c3nc(N)nc4c(OC)cccc34)nn2)c1=O [Example 25]
< 100 nM | < 100 nM | 1-[(S)-Tetrahydro-2H-pyran-3-yl]-3-{[4-(2-amino-8-methoxy-4-quinazolinyl)-1H-1,2,3-triazol-1-yl]methyl}-1H-pyridin-2-one [Example 32]
100 to 1000 nM | < 100 nM | COc1cccc2c(-c3cn(Cc4cccn([C@H](C)C(C)(C)O)c4=O)nn3)nc(N)nc12 [Example 27, 1-[(R)-2-Hydroxy-1,2-dimethylpropyl]-3-{[4-(2-amino-8-methoxy-4-quinazolinyl)-1H-1,2,3-triazol-1-yl]methyl}-1H-pyridin-2-one]
< 100 nM | < 100 nM | COc1cccc2c(-c3cn(Cc4cccn([C@@H](C)C5CCOCC5)c4=O)nn3)nc(N)nc12 [Example 29]
100 to 1000 nM | < 100 nM | CCn1cccc(Cn2cc(-c3nc(N)nc4c(OC)cccc34)cn2)c1=O [Example 40, 3-{[4-(2-Amino-8-methoxy-4-quinazolinyl)-1H-pyrazol-1-yl]methyl}-1-ethyl-1H-pyridin-2-one]
